Patent publication US12162893B2 (Erasca, Inc., priority 2020, dated 2024)

Target: T1, mutant G12C K-RAS (Homo sapiens, UniProt P01116, G12C)
T1 construct: made in house; host or cells: E. coli BL21
Assay: covalent adduct formation (CAF) with mutant G12C K-RAS
Type: binding
Conditions: Table 6; 10 μM, 1 h
Experimental: Embodiments disclosed herein are further illustrated by the following examples in Tables 1-4 and the Examples hereinbelow. The Tables indicate the compound number, structure, the observed mass spectral molecular weight peak, and covalent adduct formation (CAF) with a mutant G12C K-RAS after 60 minutes at a concentration of 10 micromolar.

| Structure (SMILES) | % CAF @ 10 μM,1 h |
| --- | --- |
| C=CC(=O)N1C[C@H](C)N(c2nc(=O)n3c4c(c(-c5ccc(F)cc5F)c(Cl)cc24)OC[C@@H]3CCCN2[C@@H]3CC[C@H]2COC3)C[C@H]1C [Example 252, (3S)-3-(3-((1R,5S)-3-oxa-8-azabicyclo[3.2.1]octan-8-yl)propyl)-7-((2S,5R)-4-acryloyl-2,5-dimethylpiperazin-1-yl)-9-chloro-10-(2,4-difluorophenyl)-2H-[1,4]oxazino[2,3,4-ij]quinazolin-5(3H)-one] | 60.5% |
| C=CC(=O)N1C[C@H](C)N(c2nc(=O)n3c4c(c(-c5ccc(F)cc5F)c(Cl)cc24)OC[C@H]3CCCN2CCS(=O)(=O)CC2)C[C@H]1C [Example 253, (3R)-7-((2S,5R)-4-acryloyl-2,5-dimethylpiperazin-1-yl)-9-chloro-10-(2,4-difluorophenyl)-3-(3-(1,1-dioxidothiomorpholino)propyl)-2,3-dihydro-5H-[1,4]oxazino[2,3,4-ij]quinazolin-5-one] | 87.6% |
| C=CC(=O)N1C[C@H](C)N(c2nc(=O)n3c4c(c(-c5ccc(F)cc5F)c(Cl)cc24)OC[C@H]3CCCN2C3CCC2COC3)C[C@H]1C [Example 254, (3R)-3-(3-(3-oxa-8-azabicyclo[3.2.1]octan-8-yl)propyl)-7-((2S,5R)-4-acryloyl-2,5-dimethylpiperazin-1-yl)-9-chloro-10-(2,4-difluorophenyl)-2,3-dihydro-5H-[1,4]oxazino[2,3,4-ij]quinazolin-5-one] | 99.5% |
| C=CC(=O)N1C[C@H](C)N(c2nc(=O)n3c4c(c(-c5ccc(F)cc5F)c(Cl)cc24)OC[C@@H]3CCCN2CCS(=O)(=O)CC2)C[C@H]1C [Example 255, (3S)-7-((2S,5R)-4-acryloyl-2,5-dimethylpiperazin-1-yl)-9-chloro-10-(2,4-difluorophenyl)-3-(3-(1,1-dioxidothiomorpholino)propyl)-2,3-dihydro-5H-[1,4]oxazino[2,3,4-ij]quinazolin-5-one] | 86.8% |
| C=CC(=O)N1C[C@H](C)N(c2nc(=O)n3c4c(c(-c5ccc(F)cc5F)c(Cl)cc24)OC[C@H]3CN2CCN(C)CC2)C[C@H]1C [Example 256, (3R)-7-((2S,5R)-4-acryloyl-2,5-dimethylpiperazin-1-yl)-9-chloro-10-(2,4-difluorophenyl)-3-((4-methylpiperazin-1-yl)methyl)-2H-[1,4]oxazino[2,3,4-ij]quinazolin-5(3H)-one] | 80.1% |
| C=CC(=O)N1C[C@H](C)N(c2nc(=O)n3c4c(c(-c5ccc(F)cc5F)c(Cl)cc24)OC[C@@H]3CN2CCN(C)CC2)C[C@H]1C [Example 257, (3S)-7-((2S,5R)-4-acryloyl-2,5-dimethylpiperazin-1-yl)-9-chloro-10-(2,4-difluorophenyl)-3-((4-methylpiperazin-1-yl)methyl)-2H-[1,4]oxazino[2,3,4-ij]quinazolin-5(3H)-one] | 94.8% |
| C=CC(=O)N1C[C@H](C)N(c2nc(=O)n3c4c(c(-c5ccc(F)cc5F)c(Cl)cc24)O[C@@H](CCCN2CCOCC2)C3)C[C@H]1C [Example 258, (2S)-7-((2S,5R)-4-acryloyl-2,5-dimethylpiperazin-1-yl)-9-chloro-10-(2,4-difluorophenyl)-2-(3-morpholinopropyl)-2,3-dihydro-5H-[1,4]oxazino[2,3,4-ij]quinazolin-5-one] | 17.7% |
| C=CC(=O)N1C[C@H](C)N(c2nc(=O)n3c4c(c(-c5ccc(F)cc5F)c(Cl)cc24)OC[C@@H]3CCCN2CCN(C)CC2)C[C@H]1C [Example 259, (3S)-7-((2S,5R)-4-acryloyl-2,5-dimethylpiperazin-1-yl)-9-chloro-10-(2,4-difluorophenyl)-3-(3-(4-methylpiperazin-1-yl)propyl)-2,3-dihydro-5H-[1,4]oxazino[2,3,4-ij]quinazolin-5-one] | 90.2% |
| C=CC(=O)N1C[C@H](C)N(c2nc(=O)n3c4c(c(-c5ccc(F)cc5F)c(Cl)cc24)O[C@H](CCCN2CCN(C)CC2)C3)C[C@H]1C [Example 260, (2R)-7-((2S,5R)-4-acryloyl-2,5-dimethylpiperazin-1-yl)-9-chloro-10-(2,4-difluorophenyl)-2-(3-(4-methylpiperazin-1-yl)propyl)-2,3-dihydro-5H-[1,4]oxazino[2,3,4-ij]quinazolin-5-one] | 48.4% |
| C=CC(=O)N1C[C@H](C)N(c2nc(=O)n3c4c(c(-c5ccc(F)cc5F)c(Cl)cc24)O[C@H](CCCN2C4CCC2COC4)C3)C[C@H]1C [Example 261, (2R)-2-(3-(3-oxa-8-azabicyclo[3.2.1]octan-8-yl)propyl)-7-((2S,5R)-4-acryloyl-2,5-dimethylpiperazin-1-yl)-9-chloro-10-(2,4-difluorophenyl)-2,3-dihydro-5H-[1,4]oxazino[2,3,4-ij]quinazolin-5-one] | 21.1% |
| C=CC(=O)N1C[C@H](C)N(c2nc(=O)n3c4c(c(-c5ccc(F)cc5F)c(Cl)cc24)O[C@@H](CCCN2C4CCC2COC4)C3)C[C@H]1C [Example 262, (2S)-2-(3-(3-oxa-8-azabicyclo[3.2.1]octan-8-yl)propyl)-7-((2S,5R)-4-acryloyl-2,5-dimethylpiperazin-1-yl)-9-chloro-10-(2,4-difluorophenyl)-2,3-dihydro-5H-[1,4]oxazino[2,3,4-ij]quinazolin-5-one] | 31.6% |
| C=CC(=O)N1C[C@H](C)N(c2nc(=O)n3c4c(c(-c5ccc(F)cc5F)c(Cl)cc24)O[C@@H](CCCN2CCN(C)CC2)C3)C[C@H]1C [Example 263, (2S)-7-((2S,5R)-4-acryloyl-2,5-dimethylpiperazin-1-yl)-9-chloro-10-(2,4-difluorophenyl)-2-(3-(4-methylpiperazin-1-yl)propyl)-2,3-dihydro-5H-[1,4]oxazino[2,3,4-ij]quinazolin-5-one] | 41.6% |
| C=CC(=O)N1C[C@H](C)N(c2nc(=O)n3c4c(c(-c5ccc(F)cc5F)c(Cl)cc24)OC[C@H]3CCCN2CCN(C)CC2)C[C@H]1C [Example 264, (3R)-7-((2S,5R)-4-acryloyl-2,5-dimethylpiperazin-1-yl)-9-chloro-10-(2,4-difluorophenyl)-3-(3-(4-methylpiperazin-1-yl)propyl)-2,3-dihydro-5H-[1,4]oxazino[2,3,4-ij]quinazolin-5-one] | 97.4% |
| C=CC(=O)N1C[C@H](C)N(c2nc(=O)n3c4c(c(-c5ccc(F)cc5F)c(Cl)cc24)OC[C@@H]3CCCN2C[C@@H]3C[C@H]2CO3)C[C@H]1C [Example 266, (3S)-3-(3-((1S,4S)-2-oxa-5-azabicyclo[2.2.1]heptan-5-yl)propyl)-7-((2S,5R)-4-acryloyl-2,5-dimethylpiperazin-1-yl)-9-chloro-10-(2,4-difluorophenyl)-2,3-dihydro-5H-[1,4]oxazino[2,3,4-ij]quinazolin-5-one] | 59.2% |
| C=CC(=O)N1C[C@H](C)N(c2nc(=O)n3c4c(c(-c5ccc(F)cc5F)c(Cl)cc24)OC[C@H]3Cn2ccnc2)C[C@H]1C [Example 267, (3R)-3-((1H-imidazol-1-yl)methyl)-7-((2S,5R)-4-acryloyl-2,5-dimethylpiperazin-1-yl)-9-chloro-10-(2,4-difluorophenyl)-2H-[1,4]oxazino[2,3,4-ij]quinazolin-5(3H)-one] | 13.6% |
| C=CC(=O)N1C[C@H](C)N(c2nc(=O)n3c4c(c(-c5ccc(F)cc5F)c(Cl)cc24)OC[C@H]3CN2CCS(=O)(=O)CC2)C[C@H]1C [Example 268, (3R)-7-((2S,5R)-4-acryloyl-2,5-dimethylpiperazin-1-yl)-9-chloro-10-(2,4-difluorophenyl)-3-((1,1-dioxidothiomorpholino)methyl)-2H-[1,4]oxazino[2,3,4-ij]quinazolin-5(3H)-one] | 68% |
| C=CC(=O)N1C[C@H](C)N(c2nc(=O)n3c4c(c(-c5ccc(F)cc5F)c(Cl)cc24)OC[C@@H]3CN2CCS(=O)(=O)CC2)C[C@H]1C [Example 269, (3S)-7-((2S,5R)-4-acryloyl-2,5-dimethylpiperazin-1-yl)-9-chloro-10-(2,4-difluorophenyl)-3-((1,1-dioxidothiomorpholino)methyl)-2H-[1,4]oxazino[2,3,4-ij]quinazolin-5(3H)-one] | 94.6% |
| C=CC(=O)N1C[C@H](C)N(c2nc(=O)n3c4c(c(-c5ccc(F)cc5F)c(Cl)cc24)OC[C@H]3CCCN2C[C@@H]3C[C@H]2CO3)C[C@H]1C [Example 270, (3R)-3-(3-((1S,4S)-2-oxa-5-azabicyclo[2.2.1]heptan-5-yl)propyl)-7-((2S,5R)-4-acryloyl-2,5-dimethylpiperazin-1-yl)-9-chloro-10-(2,4-difluorophenyl)-2H-[1,4]oxazino[2,3,4-ij]quinazolin-5(3H)-one] | 96.4% |
| C=CC(=O)N1C[C@H](C)N(c2nc(=O)n3c4c(c(-c5ccc(F)cc5F)c(Cl)cc24)OC[C@H]3CCCN2CCC(F)(F)C2)C[C@H]1C [Example 271, (3R)-7-((2S,5R)-4-acryloyl-2,5-dimethylpiperazin-1-yl)-9-chloro-10-(2,4-difluorophenyl)-3-(3-(3,3-difluoropyrrolidin-1-yl)propyl)-2,3-dihydro-5H-[1,4]oxazino[2,3,4-ij]quinazolin-5-one] | 93.6% |
| C=CC(=O)N1C[C@H](C)N(c2nc(=O)n3c4c(c(-c5ccc(F)cc5F)c(Cl)cc24)OC[C@H]3CCCn2ccnc2)C[C@H]1C [Example 272, (3R)-3-(3-(1H-imidazol-1-yl)propyl)-7-((2S,5R)-4-acryloyl-2,5-dimethylpiperazin-1-yl)-9-chloro-10-(2,4-difluorophenyl)-2,3-dihydro-5H-[1,4]oxazino[2,3,4-ij]quinazolin-5-one] | 89.4% |
